How the values were obtained:
[1] = biological target: T1, human α4β2 subtype of nicotinic acetylcholine receptors (Homo sapiens, UniProt P17787+P43681); assay type: cell-based
T1 construct: expressed in transfected cells; host or cells: Xenopus laevis oocytes injected with hnACh-R α4 and β2 cRNA (pSP64 polyA vector)
Method: The agonist effect in human α4β2 subtype of nicotinic acetylcholine receptors are examined by using human nicotinic acetylcholine receptors prepared in oocytes of Xenopus laevis, which is injected with cRNA from the corresponding cloning cDNA of human α4 and β2 subunits of nicotinic acetylcholine receptors, and to measure the expression of the electric response by adding the test compounds to perfusion solution by means of membrane potential holding method.
Agonist Activities at Human α4β2 Subtype of Nicotinic Acetylcholine Receptors
The agonist activities of the compounds of the present invention at human α4β2 subtype of nicotinic acetylcholine receptors was evaluated by the following method, which was modified method described by Papke R. L., Thinschmidt J. S., Moulton B. A., Meyer E. M. & Poirier A., Br. J. Pharmacol., 120, 429-438 (1997).
(1) Preparation of cRNA of Human α4β2 Subtype of Nicotinic Acetylcholine Receptors
The cloning of human nicotinic acetylcholine receptor (hnACh-R) α4 cDNA and hnAC-R β2 cDNA were performed, in accordance with the conventional manners, by synthesizing the each DNA primers corresponding to the sequences of hnACh-R α4 cDNA and hnACh-R β2 cDNA [Monteggia L. M. et al., Gene, 155, 189-193 (1995); and Anand R., & Lindstrom J., Nucl. Acids Res., 18, 4272 (1990)], and obtained hnACh-R α4 cDNA and hnACh-R β2 cDNA by polymerase chain reaction (PCR), respectively. The obtained hnACh-R α4 cDNA and hnACh-R β2 cDNA were inserted to the cRNA expression vector (pSP64 polyA) having SP6 RNA promoter to construct hnACh-R α4/pSP64 polyA and hnACh-R β2/pSP64 polyA, respectively. After cutting from expression vector by restriction enzyme (EcoRI), transcription was performed by affecting SP6 RNA polymerase in the presence of cap analogues to obtain hnACh-R α4 cRNA and hnACh-R β2 cRNA, respectively.
(2) Expression of Human α4β2 Subtype Nicotinic Acetylcholine Receptors in Xenopus Oocytes
Oocytes were purchased from Kitanihonseibustukyohzai Co., Ltd., which were already enucleated from Xenopus laevis, and used in this experiment.
The oocytes were treated with collagenase (Sigma type I; 1 mg/ml) in calcium-free modified Birth's solution (88 mM of NaCl, 1 mM of KCl, 2.4 mM of NaHCO3, 0.82 mM of MgSO4, 15 mM of HEPES, pH 7.6) under gently stirring at the room temperature for 90 minutes, and washed out the enzyme from the tissue. Then, oocytes were separated from ovarian follicle by tweezers, and isolated oocytes were placed in antibiotics containing modified Birth's solution (88 mM of NaCl, 1 mM of KCl, 2.4 mM of NaHCO3, 0.82 mM of MgSO4, 15 mM of HEPES, pH 7.6, and 0.1 v/v % of mixture solution containing of penicillin and streptomycin for incubation; Sigma Co.). Thus treated oocytes were injected with 50 nl of adjusted cRNAs (1.0 mg/ml), that is, each 50 ng of hnACh-R α4 cRNA and hnACh-R β2 cRNA per 1 oocyte by using automatic injector (NANOJECT; DRUMMOND […] CO.), and further incubated for 4-14 days at 19° C. In oocytes, heterogeneous quintuple [(α4)2(β2)3] was composed by translation of injected cRNAs, and ion channel receptors were constructed on cell membrane.
(3) Agonist Activities at Human α4β2 Subtype of Nicotinic Acetylcholine Receptors
The recordings of responses at human α4β2 subtype of nicotinic acetylcholine receptors by means of membrane potential holding method were performed as follow. […] Test compounds were added to the perfusion solution, and recorded the peak strength of induced inward electric current. […]

[2] = biological target: T2, α1β1γδ subtype of nicotinic acetylcholine receptors (Rattus norvegicus, UniProt P18916+P25108+P25109+P25110); test: biochemical; assay type: binding
T2 construct: The centrifugation at 100,000×G for 60 minutes at 4° C. yielded the rat muscle extract as supernatant
T2 sequence (P25108 21-457): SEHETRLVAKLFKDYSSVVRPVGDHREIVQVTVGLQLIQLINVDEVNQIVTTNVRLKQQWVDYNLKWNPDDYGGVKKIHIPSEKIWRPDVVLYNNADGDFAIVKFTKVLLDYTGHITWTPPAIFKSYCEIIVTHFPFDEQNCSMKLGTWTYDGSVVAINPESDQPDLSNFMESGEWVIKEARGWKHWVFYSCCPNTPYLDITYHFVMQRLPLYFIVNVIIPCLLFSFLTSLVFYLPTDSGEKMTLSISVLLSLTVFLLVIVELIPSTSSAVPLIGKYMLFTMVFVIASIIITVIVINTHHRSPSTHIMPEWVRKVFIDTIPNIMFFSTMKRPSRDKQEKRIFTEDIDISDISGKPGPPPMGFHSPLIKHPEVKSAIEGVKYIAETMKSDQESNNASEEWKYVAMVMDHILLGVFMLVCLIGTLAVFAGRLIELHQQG
T2 sequence (P25109 24-501): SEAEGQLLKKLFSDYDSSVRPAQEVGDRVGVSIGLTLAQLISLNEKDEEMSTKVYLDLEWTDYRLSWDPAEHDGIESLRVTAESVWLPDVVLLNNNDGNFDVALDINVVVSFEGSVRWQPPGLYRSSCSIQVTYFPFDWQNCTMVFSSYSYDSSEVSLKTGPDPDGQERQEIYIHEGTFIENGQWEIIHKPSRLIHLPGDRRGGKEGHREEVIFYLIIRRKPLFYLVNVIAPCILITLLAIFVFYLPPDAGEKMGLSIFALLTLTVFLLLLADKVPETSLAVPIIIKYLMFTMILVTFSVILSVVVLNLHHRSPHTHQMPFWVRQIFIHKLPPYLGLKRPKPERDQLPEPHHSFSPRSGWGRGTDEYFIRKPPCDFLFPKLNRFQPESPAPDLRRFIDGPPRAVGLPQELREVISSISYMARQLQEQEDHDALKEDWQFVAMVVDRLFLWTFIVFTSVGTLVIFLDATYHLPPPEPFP
T2 sequence (P25110 22-517): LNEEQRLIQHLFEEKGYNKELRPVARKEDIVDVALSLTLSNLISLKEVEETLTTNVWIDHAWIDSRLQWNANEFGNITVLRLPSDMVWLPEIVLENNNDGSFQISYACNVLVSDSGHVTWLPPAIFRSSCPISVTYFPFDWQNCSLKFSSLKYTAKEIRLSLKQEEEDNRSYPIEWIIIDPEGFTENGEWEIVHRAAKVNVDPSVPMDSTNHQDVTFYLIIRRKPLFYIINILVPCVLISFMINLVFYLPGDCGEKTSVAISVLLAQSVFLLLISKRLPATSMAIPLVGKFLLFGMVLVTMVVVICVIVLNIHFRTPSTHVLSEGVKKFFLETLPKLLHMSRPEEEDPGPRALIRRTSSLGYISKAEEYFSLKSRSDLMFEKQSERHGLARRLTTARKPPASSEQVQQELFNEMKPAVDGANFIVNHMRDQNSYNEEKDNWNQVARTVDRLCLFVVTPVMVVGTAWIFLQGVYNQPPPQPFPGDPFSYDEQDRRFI
Source text: (§1) The methods for evaluating the binding capabilities of the compounds against nicotinic acetylcholine receptors are different by subtypes of receptors. The binding capabilities of the compounds at α4β2 nicotinic acetylcholine receptors are examined using rat brain membrane obtained from whole homogenized brain, and determining the inhibiting rate of the compounds against [^3H]-cytisine binding to said brain membrane. Furthermore, the binding capabilities of the compounds at α1β1γδ nicotinic acetylcholine receptors are examined using homogenized rat muscle, and determining the inhibiting rate of the compounds against [^3H]-α-bungarotoxin binding to said muscle membrane.
Binding Assays at α1β1γδ Subtype of Nicotinic Acetylcholine Receptors
The affinity of the compounds of the present invention to α1β1γδ subtype of nicotinic acetylcholine receptors was measured by the following method, which was modified method described by Garcha H. S., Thomas P., Spivak C.
(1) Preparation of Rat Skeletal Muscles Containing α1β1γδ Subtype of Nicotinic Acetylcholine Receptors
The substantially same animals described in the Biological Experiment 1 were used.
The isolation of α1β1γδ subtype of nicotinic acetylcholine receptors was performed as follow. That is, rat posterior skeletal muscles were isolated just after sacrificed by decapitation, washed with ice-cooled saline solution and then frozen at −80° C. with liquid nitrogen and stored till using. After thawing the frozen muscles, tissue was homogenized (40% w/v) with buffer solution [2.5 mM of sodium phosphate buffer (pH:7.2), 90 mM of NaCl, 2 mM of KCl, 1 mM of EDTA, 2 mM of benzamidine, 0.1 mM of benzethonium chloride, 0.1 mM of PMSF, 0.01% of sodium azide] in Waring blender [Waring blender 34BL97; WARING PRODUCTS DIVISION DYNAMICS CORPORATION OF AMERICA) for 60 seconds. The homogenate were centrifuged under 20,000×G for 60 minutes at 4° C. The supernatant was separated and the resulting pellet was added to the same buffer (1.5 ml/g wet weight), and homogenized under the same conditions. Triton X100 (2% w/v) was added and the mixture was stirred for 3 hours at 4° C. The centrifugation at 100,000×G for 60 minutes at 4° C. yielded the rat muscle extract as supernatant. This was stored at 4° C. for up to 4 weeks, and used for binding assays at receptors.
(2) Experiments of α1β1γδ Subtype of Nicotinic Acetylcholine Receptors Binding
Receptors binding experiments were performed as follow. That is, the extract of rat muscle containing 600-900 μg of protein was added to test tubes containing test compounds and incubated for 15 minutes at 37° C. Then, to this mixture was added 1 nM of [^3H]-α-bungarotoxin (α-Bgt) and further incubated for 2 hours. The samples were isolated by vacuum filtration onto Whatman GF/B filters, which were prerinsed with 0.5% polyethylenimine just prior to sample filtration, using Brandel multi manifold cell harvester. The filters were rapidly rinsed with washing solution (10 mM of KH2PO4, 150 mM of NaCl, pH 7.2, room temperature) (5×1 ml). The filters were counted in 3 ml of clearsol I (Nacalai Tesque Inc.). The determination of nonspecific binding was incubated in the presence of 1 μM α-Bgt. […] In the receptor binding experiments, said buffer solution was added for adjusting the final concentration of BSA to be 0.05%.
The analyses of the experimental results were conducted by as described in the Biological Experiment 1.

[3] = biological target: T3, α4β2 subtype of nicotinic acetylcholine receptors (Rattus norvegicus, UniProt P09483+P12390); test: Binding assay at α4β2 subtype of nicotinic acetylcholine receptors ([3H]-cytisine, rat brain membrane)
T3 construct: examined using rat brain membrane obtained from whole homogenized brain; from tissue; host or cells: whole brain membranes of Fischer-344 male rats
T3 sequence (P09483 31-630): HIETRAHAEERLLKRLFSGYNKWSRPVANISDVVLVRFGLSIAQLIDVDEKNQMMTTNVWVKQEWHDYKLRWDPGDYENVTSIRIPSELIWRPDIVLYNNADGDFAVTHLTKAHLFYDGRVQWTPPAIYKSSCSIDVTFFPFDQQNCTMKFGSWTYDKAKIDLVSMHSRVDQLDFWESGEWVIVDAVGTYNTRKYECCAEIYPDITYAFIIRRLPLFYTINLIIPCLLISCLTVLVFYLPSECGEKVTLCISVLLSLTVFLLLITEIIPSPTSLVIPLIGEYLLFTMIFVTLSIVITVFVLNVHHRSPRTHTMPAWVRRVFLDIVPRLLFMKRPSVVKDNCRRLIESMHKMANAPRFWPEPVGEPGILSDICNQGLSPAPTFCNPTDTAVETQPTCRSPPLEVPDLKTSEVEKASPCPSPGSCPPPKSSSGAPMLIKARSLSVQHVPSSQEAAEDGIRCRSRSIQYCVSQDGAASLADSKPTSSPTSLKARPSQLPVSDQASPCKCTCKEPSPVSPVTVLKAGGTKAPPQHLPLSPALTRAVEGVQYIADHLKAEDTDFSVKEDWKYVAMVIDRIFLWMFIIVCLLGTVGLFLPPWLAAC
T3 sequence (P12390 25-500): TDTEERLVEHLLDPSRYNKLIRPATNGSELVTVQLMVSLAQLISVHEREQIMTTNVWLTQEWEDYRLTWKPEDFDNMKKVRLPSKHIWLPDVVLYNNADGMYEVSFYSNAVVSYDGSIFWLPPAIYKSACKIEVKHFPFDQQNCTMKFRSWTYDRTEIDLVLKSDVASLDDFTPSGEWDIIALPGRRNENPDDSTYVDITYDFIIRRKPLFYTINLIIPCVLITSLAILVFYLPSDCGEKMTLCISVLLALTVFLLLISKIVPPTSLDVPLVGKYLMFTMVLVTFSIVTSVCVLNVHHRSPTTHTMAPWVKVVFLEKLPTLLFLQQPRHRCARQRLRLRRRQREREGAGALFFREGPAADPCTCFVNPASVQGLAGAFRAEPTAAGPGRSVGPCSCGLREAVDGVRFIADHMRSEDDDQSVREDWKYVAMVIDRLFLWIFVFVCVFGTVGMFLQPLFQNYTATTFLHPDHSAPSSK
Source text: as §1
Binding Assays at α4β2 Subtype of Nicotinic Acetylcholine Receptors
The affinity of the compounds of the present invention to α4β2 subunit of nicotinic acetylcholine receptors was performed by the following method, which was modified method described by Pabreza L. A., Dhawan S. & Kellar K. J., Mol. Pharm., 39, 9-12 (1990), and by Anderson D. J. & Arneric S. P., Eur. J. Pharm., 253, 261-267 (1994).
(1) Preparation of Rat Brain Membrane Containing α4β2 subtype of Nicotinic Acetylcholine Receptors
Fischer-344 strain male rats (body weight: 200-240 g; 9 weeks old) obtained from Charles River Japan were used. Rats were housed in the breeding cage controlled of the room temperature at 23±1° C., and the humidity of 55±5% for 1 to 4 weeks. Rats (3 to 4 rats per a cage) were housed with lights on for 12 hours daily (from 7:00 to 19:00), and allowed free access to food and water.
Preparation of rat brain membrane containing α4β2 subtype of nicotinic acetylcholine receptors was performed as follow. That is, rat brains were isolated just after sacrificed by decapitation, washed with ice-cooled saline solution and then frozen at −80° C. with liquid nitrogen and stored till using. After thawing the frozen brain, the brain was homogenized in 10 volumes of buffer solution (50 mM of Tris-HCl, 120 mM of NaCl, 5 mM of KCl, 1 mM of MgCl2, 2mM of CaCl2; pH 7.4; 4° C.) using homogenizer (HG30, Hitachi Kohki Ltd.) for 30 seconds, and the homogenate were centrifuged under 1,000×G for 10 minutes at 4° C. The resulting supernatant was separated and the pellet was homogenized again with half volume of aforementioned prior buffer solution and centrifuged under the same conditions. Combined supernatant was further centrifuged under 40,000×G for 20 minutes at 4° C. The pellet was suspended in buffer solution and used for binding assays at receptors.
(2) Experiments of α4β2 Subtype of Nicotinic Acetylcholine Receptors Binding
Suspensions of membrane pellets containing 400-600 μg of protein were added to test tubes containing test compounds and [^3H]-cytisine (2 nM) in a final volume of 200 μl and incubated for 75 minutes in ice-cooled bath. The samples were isolated by vacuum filtration onto Whatman GF/B filters, which were prerinsed with 0.5% polyethylenimine just prior to sample filtration, using Brandel multi manifold cell harvester. The filters were rapidly washed with buffer solution (3×1 ml). The filters were counted in 3 ml of clearsol I (Nacalai Tesque Inc.).
The analyses of the experimental results were conducted by using the Accufit Competition Program (Beckman Ltd.).

T1 sequence (P43681 29-627 limits assumed): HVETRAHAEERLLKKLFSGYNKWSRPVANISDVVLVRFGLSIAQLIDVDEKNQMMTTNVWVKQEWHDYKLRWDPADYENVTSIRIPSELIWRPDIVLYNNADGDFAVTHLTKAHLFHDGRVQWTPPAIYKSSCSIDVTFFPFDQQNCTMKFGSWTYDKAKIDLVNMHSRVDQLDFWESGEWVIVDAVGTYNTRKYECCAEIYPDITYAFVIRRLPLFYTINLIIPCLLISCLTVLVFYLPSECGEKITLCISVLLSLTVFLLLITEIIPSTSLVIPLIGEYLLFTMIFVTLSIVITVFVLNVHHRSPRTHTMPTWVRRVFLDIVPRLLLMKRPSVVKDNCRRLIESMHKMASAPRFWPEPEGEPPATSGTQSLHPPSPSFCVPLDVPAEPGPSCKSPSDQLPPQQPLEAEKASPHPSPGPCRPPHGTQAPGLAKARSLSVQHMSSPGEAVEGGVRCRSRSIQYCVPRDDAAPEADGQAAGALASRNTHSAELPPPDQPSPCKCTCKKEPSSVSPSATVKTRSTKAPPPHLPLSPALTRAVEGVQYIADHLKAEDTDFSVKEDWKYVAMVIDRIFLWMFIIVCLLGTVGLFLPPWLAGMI
T1 sequence (P17787 26-502): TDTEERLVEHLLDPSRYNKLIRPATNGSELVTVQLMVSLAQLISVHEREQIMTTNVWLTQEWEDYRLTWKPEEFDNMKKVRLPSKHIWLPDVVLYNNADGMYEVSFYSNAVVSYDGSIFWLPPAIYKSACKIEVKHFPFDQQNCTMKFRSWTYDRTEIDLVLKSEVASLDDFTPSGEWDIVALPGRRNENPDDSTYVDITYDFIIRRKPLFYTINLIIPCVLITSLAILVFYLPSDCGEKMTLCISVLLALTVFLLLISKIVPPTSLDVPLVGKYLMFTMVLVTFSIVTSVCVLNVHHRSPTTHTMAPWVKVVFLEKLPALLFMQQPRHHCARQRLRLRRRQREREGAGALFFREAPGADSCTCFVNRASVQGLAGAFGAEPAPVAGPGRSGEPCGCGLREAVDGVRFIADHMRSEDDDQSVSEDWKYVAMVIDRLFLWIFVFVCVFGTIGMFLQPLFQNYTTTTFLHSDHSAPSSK

Row | Structure (SMILES) | Agonist effect [1] [%] | Ki [2] [µM] | Ki [3] [nM]
1 | CN1CCCC1c1cccnc1 (single isomer, unassigned; (-)) [Nicotine, (−)-nicotine, reference compound] | 146 | – | –
2 | Clc1ccc(CC/N=C2\SCCN2Cc2ccc(Cl)nc2)cn1 [Compound 15, 3-(6-chloro-3-pyridyl)methyl-2-[2-(6-chloro-3-pyridyl)ethyl]iminothiazolidine] | – | 479 | 86
